{"source": "patent US20070032480A1", "about": "“Treatment of ischemia-induced arrhythmias” (The Johns Hopkins University, priority 2005, published 2007)", "key": {"[1]": {"test_system": "Langendorff-perfused guinea pig hearts", "experiment": "Baseline electrophysiological properties (APD, CV) of perfused hearts by optical mapping", "details": "for baseline APD / baseline CV (conduction velocity): optimal concentration of each agent (4.6 μM FGIN-1-27, 0.2 μM CsA, 64 μM 4′Cl-DZP, 10 μM GLIBEN)", "protocol": "All procedures involving the handling of animals were approved by the Animal Care and Use Committee of the Johns Hopkins University and adhered with public health service guidelines. As described in detail elsewhere (28), adult guinea pigs (n=48) were anesthetized with pentobarbital sodium (30 mg/kg ip), and retrogradely perfused as Langendorff preparations with oxygenated (95% 02-5% CO2) Tyrode solution containing (in mmol/l) 130 NaCl, 1.2 MgSO4, 4.75 KCl, 5.0 dextrose, and 1.25 CaCl2 (pH 7.40) at 36±1° C. Hearts were stained with the voltage-sensitive dye, di-4-ANEPPS (15 μmol/l) for 10 min, and then positioned in a chamber such that the mapping field was centered over a 0.8 cm diameter region of left ventricular epicardium, midway between apex and base. Gentle pressure was applied to the posterior surface of the heart with a movable piston to stabilize the mapped surface against the imaging window of the chamber allowing us to avoid the use of electromechanical inhibitors, which interfere with repolarization, and the incidence of arrhythmias. […] Pacing with a silver pin needle placed on the epicardium was performed intermittently and briefly at various times during the experimental protocol in order to obtain a quantitative assessment of epicardial conduction velocity at each time point. Pacing was then turned off in order to determine the intrinsic response of hearts to the ischemia reperfusion protocol independent of exogenous stimulation.\n(§1) An optical mapping system was designed with the capability of simultaneously recording transmembrane action potentials (APs) from 464 sites. Emitted fluorescence was collected using a custom designed optical macroscope imaging system consisting of a high numerical aperture photographic lens, a dichroic mirror and an emission filter as previously described in detail (29). Emitted light exiting the detector lens was filtered (>610 nm) and focused onto the photodiode array. Photocurrent from each photodiode underwent current-to-voltage conversion, amplification, band-pass filtering, multiplexing, and digitization (1600 samples/s per channel) with 16-bit precision.\nFollowing extraction and staining with di-4-ANEPPS, hearts were stabilized for 30 min. […] Pharmacological agents were delivered to the heart in one of two ways: 1) continuously, during control perfusion and reperfusion, or 2) in a high dose bolus (5-10× the optimal equilibration concentration), injected into the coronaries during the ischemic phase, 5 min before the onset of reperfusion. […] Following baseline perfusion at 15-20 mL/min to maintain a perfusion pressure of 60-70 mmHg, flow was completely stopped for 30 min (Ischemia phase), and APs (3.8 s epochs) were recorded at 1-min intervals. Following the ischemia phase, perfusion was restored initially at the same flow rate and then was adjusted slightly to exactly match the perfusion pressure during the baseline perfusion phase (Reperfusion phase). The optimal equilibration concentration of each agent was determined by its effects on ischemia-induced AP shortening, recovery of the AP duration (APD), and/or prevention of arrhythmias upon reperfusion.\nIn order to investigate whether mitochondrial ROS-induced activation of IMAC underlies the electrical dysfunction of hearts subjected to IR, a protocol for reproducibly inducing ventricular fibrillation (VF) in Langendorff-perfused guinea pig hearts was established."}, "[2]": {"test_system": "Langendorff-perfused guinea pig hearts", "experiment": "Response to reperfusion after 30 min ischemia (arrhythmias, AP recovery)", "details": "for period of electrical inexcitability upon reperfusion: 0.2 μM CsA, 4′-Cl-DZP pretreated hearts; for post-ischemic (reperfusion) arrhythmias, effect in words: reperfusion after 30 min ischemia", "protocol": "(§2) All procedures involving the handling of animals were approved by the Animal Care and Use Committee of the Johns Hopkins University and adhered with public health service guidelines. As described in detail elsewhere (28), adult guinea pigs (n=48) were anesthetized with pentobarbital sodium (30 mg/kg ip), and retrogradely perfused as Langendorff preparations with oxygenated (95% 02-5% CO2) Tyrode solution containing (in mmol/l) 130 NaCl, 1.2 MgSO4, 4.75 KCl, 5.0 dextrose, and 1.25 CaCl2 (pH 7.40) at 36±1° C. Hearts were stained with the voltage-sensitive dye, di-4-ANEPPS (15 μmol/l) for 10 min, and then positioned in a chamber such that the mapping field was centered over a 0.8 cm diameter region of left ventricular epicardium, midway between apex and base. Gentle pressure was applied to the posterior surface of the heart with a movable piston to stabilize the mapped surface against the imaging window of the chamber allowing us to avoid the use of electromechanical inhibitors, which interfere with repolarization, and the incidence of arrhythmias. Although experiments were typically completed within 1.5 to 2 h, these preparations remained stable for over 4 h of perfusion. Pacing with a silver pin needle placed on the epicardium was performed intermittently and briefly at various times during the experimental protocol in order to obtain a quantitative assessment of epicardial conduction velocity at each time point. Pacing was then turned off in order to determine the intrinsic response of hearts to the ischemia reperfusion protocol independent of exogenous stimulation.\nas §1\n(§3) Following extraction and staining with di-4-ANEPPS, hearts were stabilized for 30 min. Monitoring of APs, perfusion pressure, coronary flow, and temperature ensured electrical stability in all preparations (n=48) used in this study. Pharmacological agents were delivered to the heart in one of two ways: 1) continuously, during control perfusion and reperfusion, or 2) in a high dose bolus (5-10× the optimal equilibration concentration), injected into the coronaries during the ischemic phase, 5 min before the onset of reperfusion. […] Following baseline perfusion at 15-20 mL/min to maintain a perfusion pressure of 60-70 mmHg, flow was completely stopped for 30 min (Ischemia phase), and APs (3.8 s epochs) were recorded at 1-min intervals. Following the ischemia phase, perfusion was restored initially at the same flow rate and then was adjusted slightly to exactly match the perfusion pressure during the baseline perfusion phase (Reperfusion phase). The optimal equilibration concentration of each agent was determined by its effects on ischemia-induced AP shortening, recovery of the AP duration (APD), and/or prevention of arrhythmias upon reperfusion.\nReperfusion of untreated control hearts was associated with sustained ventricular fibrillation (VF) in 89% of hearts (FIG. 5)."}, "[3]": {"test_system": "Langendorff-perfused guinea pig hearts", "experiment": "Electrophysiological response to 30 min no-flow global ischemia", "details": "for time for the onset of inexcitability during ischemia: no-flow ischemia, control hearts ˜18 min; for ischemia-induced APD shortening: pre-treatment before no-flow ischemia; for ischemia-induced APD shortening / ischemia-induced reduction of normalized APA and upstroke velocity (dF/dt): versus control hearts; for ischemia-induced reduction of normalized APA and upstroke velocity (dF/dt): relative to pre-ischemia baseline; for blunting of AP shortening and persistence of APs during ischemia at the highest concentration: 100 μM, 30 min no-flow ischemia", "protocol": "as §2, §1, §3\nNext, the ability of any of these pharmacological interventions to modulate the electrophysiological response of hearts to no-flow global ischemia was tested. […] Also, APD shortening in ischemia was accompanied by progressive reduction of the AP upstroke velocity, which occurred over a similar time frame (see, for example, FIG. 4).\nIschemic elevation of extracellular K^+ concentration, which may be mediated in part by KATP channel opening, might also be expected to partially depolarize the cellular resting membrane potential. […]"}, "[4]": {"test_system": "freshly isolated adult guinea pig ventricular myocytes", "experiment": "ΔΨm oscillations and action potentials in isolated cardiomyocytes (two-photon TMRM imaging with current-clamp)", "type": "cell-based"}}, "note": "“Also recorded” adds a separate entry of the source."}
{"smiles": "CCCCCCN(CCCCCC)C(=O)Cc1c(-c2ccc(F)cc2)[nH]c2ccccc12", "note": "[FGIN-1-27]", "values": [{"measurement": "effect on APD and excitability during normal perfusion", "setting": "[1]; 46 μM, normal perfusion", "value": "significant APD shortening and membrane inexcitability"}, {"measurement": "time from drug delivery to APD shortening and membrane inexcitability", "setting": "[1]; 46 μM, normal perfusion", "value": "≤ 15", "unit": "min"}, {"measurement": "baseline APD", "setting": "[1]; baseline perfusion", "value": "174 ± 16", "unit": "ms"}, {"measurement": "baseline CV (conduction velocity)", "setting": "[1]; baseline perfusion", "value": "44 ± 6", "unit": "cm/s"}, {"measurement": "period of electrical inexcitability upon reperfusion", "setting": "[2]", "value": "prolonged period of electrical silence"}, {"measurement": "hearts with ventricular tachycardia (VT) upon reperfusion", "setting": "[2]; FGIN-1-27 treated hearts", "value": "6 of 6"}, {"measurement": "cycle length of VT upon reperfusion", "setting": "[2]; compared to control hearts", "value": "significantly longer cycle length"}, {"measurement": "post-ischemic (reperfusion) arrhythmias, effect in words", "setting": "[2]", "value": "long period of electrical silence followed by ventricular tachycardia (VT) of long duration"}, {"measurement": "time for the onset of inexcitability during ischemia", "setting": "[3]", "value": "12.7 ± 2.6", "unit": "min"}, {"measurement": "ischemia-induced APD shortening", "setting": "[3]", "value": "accelerated APD shortening during ischemia"}, {"measurement": "ischemia-induced reduction of normalized APA and upstroke velocity (dF/dt)", "setting": "[3]", "value": "accentuated the ischemia-induced reduction of APA and dF/dt; also recorded: more enhanced reduction of action potential amplitude"}, {"measurement": "slowing of CV during ischemia", "setting": "[3]; versus untreated hearts", "value": "disproportionate slowing of CV"}]}
{"smiles": "CN1C(=O)CN=C(c2ccc(Cl)cc2)c2cc(Cl)ccc21", "note": "[4′-Cl-DZP, 4′-chlorodiazepam]", "values": [{"measurement": "effect on APD or CV during baseline perfusion", "setting": "[1]; 100 μM, baseline perfusion", "value": "no significant effect on APD or CV; also recorded: comparable"}, {"measurement": "baseline APD", "setting": "[1]; baseline perfusion", "value": "188 ± 16", "unit": "ms"}, {"measurement": "baseline CV (conduction velocity)", "setting": "[1]; baseline perfusion", "value": "39 ± 5", "unit": "cm/s"}, {"measurement": "period of electrical inexcitability upon reperfusion", "setting": "[2]", "value": "< 2", "unit": "min"}, {"measurement": "restoring the APD upon reperfusion and preventing arrhythmias", "setting": "[2]; 100 μM versus 64 μM", "value": "not as effective as the lower concentration of 64 μM in restoring the APD upon reperfusion and preventing arrhythmias"}, {"measurement": "prevention of reperfusion-related VF", "setting": "[2]; 320 μM high dose bolus 5 min prior to onset of reperfusion", "value": "4 of 4"}, {"measurement": "prevention of reperfusion-related VF", "setting": "[2]; 32-64 μM delivered continuously prior to ischemia", "value": "6 of 8"}, {"measurement": "hearts that exhibited no sustained arrhythmias upon reperfusion", "setting": "[2]; all 4′-Cl-DZP treated hearts (continuous and bolus)", "value": "10 of 12"}, {"measurement": "recovery of the AP upon reperfusion", "setting": "[2]; optimal concentrations (64 μM 4′-Cl-DZP, 0.2 μM CsA)", "value": "promoted the rapid recovery of the AP morphology and duration"}, {"measurement": "post-ischemic (reperfusion) arrhythmias, effect in words", "setting": "[2]", "value": "markedly decreased the incidence of post-ischemic arrhythmias; also recorded: more effective than continuous inhibition of KATP channels"}, {"measurement": "post-ischemic (reperfusion) arrhythmias, effect in words", "setting": "[2]; listed as 4′CL-DZP", "value": "prevented reperfusion-related ventricular fibrillation"}, {"measurement": "time from drug application to suppression of AP oscillations and stabilisation of APD90", "setting": "[4]; 64 μM", "value": "≤ 2", "unit": "min"}, {"measurement": "oscillations in APD", "setting": "[4]; current-clamp, laser-triggered oscillations, 64 μM", "value": "eliminated oscillations in APD; also recorded: APD oscillations are eliminated"}, {"measurement": "whole-cell oscillations in ΔΨm", "setting": "[4]; oscillations triggered by focal two-photon laser flash, TMRM fluorescence", "value": "suppressed whole-cell oscillations in ΔΨm; also recorded: interruption of mitochondrial oscillations with ΔΨm recovery"}, {"measurement": "time to return of ΔΨm oscillations after washout of the compound", "setting": "[4]; washout, FIG. 1A", "value": "≤ 10", "unit": "min"}, {"measurement": "blunting of AP shortening and persistence of APs during ischemia at the highest concentration", "setting": "[3]", "value": "APs persisted even after 30 min of no-flow ischemia"}, {"measurement": "blunting of AP shortening and persistence of APs during ischemia at the highest concentration", "setting": "[3]; listed as 4′Cl-DZP", "value": "most effective in blunting AP shortening during ischemia"}, {"measurement": "ischemia-induced APD shortening", "setting": "[3]", "value": "blunted APD shortening in a dose-dependent fashion; also recorded: blunted APD shortening during ischemia"}, {"measurement": "ischemia-induced reduction of normalized APA and upstroke velocity (dF/dt)", "setting": "[3]", "value": "protected against such decrease in both parameters"}]}
{"smiles": "COc1ccc(Cl)cc1C(=O)NCCc1ccc(S(=O)(=O)NC(=O)NC2CCCCC2)cc1", "note": "[GLIBEN]", "values": [{"measurement": "baseline APD", "setting": "[1]; baseline perfusion", "value": "182 ± 16", "unit": "ms"}, {"measurement": "baseline CV (conduction velocity)", "setting": "[1]; baseline perfusion", "value": "41 ± 5", "unit": "cm/s"}, {"measurement": "hearts in which tachyarrhythmias were prevented", "setting": "[2]; bolus dose given just prior to reperfusion", "value": "2 of 3"}, {"measurement": "time for the onset of inexcitability during ischemia", "setting": "[3]", "value": "~18", "unit": "min"}, {"measurement": "ischemia-induced APD shortening", "setting": "[3]", "value": "marked reduction in the rate of APD shortening"}, {"measurement": "ischemia-induced reduction of normalized APA and upstroke velocity (dF/dt)", "setting": "[3]", "value": "protected against such decrease in both parameters"}]}
